Read-outs that look alike come from different tables or passages of the source.
Key:
[1] = Reverse-phase thin-layer chromatographic lipophilicity (RF, RM0); type: physicochemical; conditions: for RM0: intercept of RM = RM0 + bC; for b: slope of RM = RM0 + bC; for RF, Methanol/Water/Hydrochloric acid (conc.), mobile phase I / RF, Dioxane/Water/Hydrochloric acid (conc.), mobile phase II / RF, Methanol/Water/Hydrochloric acid (conc.), mobile phase II / RF, Acetone/Water/Hydrochloric acid (conc.), mobile phase III / RF, Dioxane/Water/Hydrochloric acid (conc.), mobile phase III / RF, Methanol/Water/Hydrochloric acid (conc.), mobile phase III / RF, Dioxane/Water/Hydrochloric acid (conc.), mobile phase IV / RF, Acetone/Water/Hydrochloric acid (conc.), mobile phase IV / RF, Methanol/Water/Hydrochloric acid (conc.), mobile phase IV / RF, Acetone/Water/Hydrochloric acid (conc.), mobile phase IX / RF, Methanol/Water/Hydrochloric acid (conc.), mobile phase IX / RF, Dioxane/Water/Hydrochloric acid (conc.), mobile phase V / RF, Acetone/Water/Hydrochloric acid (conc.), mobile phase V / RF, Methanol/Water/Hydrochloric acid (conc.), mobile phase V / RF, Dioxane/Water/Hydrochloric acid (conc.), mobile phase VI / RF, Acetone/Water/Hydrochloric acid (conc.), mobile phase VI / RF, Methanol/Water/Hydrochloric acid (conc.), mobile phase VI / RF, Acetone/Water/Hydrochloric acid (conc.), mobile phase VII / RF, Methanol/Water/Hydrochloric acid (conc.), mobile phase VII / RF, Acetone/Water/Hydrochloric acid (conc.), mobile phase VIII / RF, Methanol/Water/Hydrochloric acid (conc.), mobile phase VIII: RP-18 silica; for RF, Methanol/Water/Hydrochloric acid (conc.), mobile phase I: I = 90%MeOH/5%H2O/5%HCl; for RF, Dioxane/Water/Hydrochloric acid (conc.), mobile phase II: II = 80%Dioxane/15%H2O/5%HCl; for RF, Methanol/Water/Hydrochloric acid (conc.), mobile phase II: II = 85%MeOH/10%H2O/5%HCl; for RF, Acetone/Water/Hydrochloric acid (conc.), mobile phase III: III = 70%AC/25%H2O/5%HCl; for RF, Dioxane/Water/Hydrochloric acid (conc.), mobile phase III: III = 70%Dioxane/25%H2O/5%HCl; for RF, Methanol/Water/Hydrochloric acid (conc.), mobile phase III: III = 80%MeOH/15%H2O/5%HCl; for RF, Dioxane/Water/Hydrochloric acid (conc.), mobile phase IV: IV = 60%Dioxane/35%H2O/5%HCl; for RF, Acetone/Water/Hydrochloric acid (conc.), mobile phase IV: IV = 65%AC/30%H2O/5%HCl; for RF, Methanol/Water/Hydrochloric acid (conc.), mobile phase IV: IV = 75%MeOH/20%H2O/5%HCl; for RF, Acetone/Water/Hydrochloric acid (conc.), mobile phase IX: IX = 40%AC/55%H2O/5%HCl; for RF, Methanol/Water/Hydrochloric acid (conc.), mobile phase IX: IX = 50%MeOH/45%H2O/5%HCl; for RF, Dioxane/Water/Hydrochloric acid (conc.), mobile phase V: V = 50%Dioxane/45%H2O/5%HCl; for RF, Acetone/Water/Hydrochloric acid (conc.), mobile phase V: V = 60%AC/35%H2O/5%HCl; for RF, Methanol/Water/Hydrochloric acid (conc.), mobile phase V: V = 70%MeOH/25%H2O/5%HCl; for RF, Dioxane/Water/Hydrochloric acid (conc.), mobile phase VI: VI = 40%Dioxane/55%H2O/5%HCl; for RF, Acetone/Water/Hydrochloric acid (conc.), mobile phase VI: VI = 55%AC/40%H2O/5%HCl; for RF, Methanol/Water/Hydrochloric acid (conc.), mobile phase VI: VI = 65%MeOH/30%H2O/5%HCl; for RF, Acetone/Water/Hydrochloric acid (conc.), mobile phase VII: VII = 50%AC/45%H2O/5%HCl; for RF, Methanol/Water/Hydrochloric acid (conc.), mobile phase VII: VII = 60%MeOH/35%H2O/5%HCl; for RF, Acetone/Water/Hydrochloric acid (conc.), mobile phase VIII: VIII = 45%AC/50%H2O/5%HCl; for RF, Methanol/Water/Hydrochloric acid (conc.), mobile phase VIII: VIII = 55%MeOH/40%H2O/5%HCl
Description: Chromatographic determination of lipophilicity
Merck, Darmstadt, Germany). The mobile phase contained organic modifier (methanol, acetone or dioxane), water and hydrochloric acid.
Methanol was varied in the range […]
with an increment of 10%. […]
before chromatogram development. The solvent developing distance was 4.5 cm. Detection of […]
All experiments were performed at ambient temperature (22±2 °C). Retention parameters were calculated as previously described. […]

[2] = Ferric reducing antioxidant power (FRAP) assay; conditions: mean ± standard error of three experiments;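 note: expressed as µM Fe2+ equivalents from an FeSO4·7H2O standard curve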
Description: . All the chemicals were purchased from Sigma-Aldrich (St. Louis, MO, USA), except for tripyridyltriazine (TPTZ) (Fluka, Buchs, Switzerland) and FeCl3 (Kemika, Zagreb, Croatia). The FRAP assay was assessed according to Benzie and Strain [53] with slight procedure adjustments for 96-well microplates. The method is based on the reduction of the ferric-tripyridyltriazine (Fe^3+-TPTZ) complex to ferrous tripyridyltriazine (Fe^2+-TPTZ) by the action of electron-donating compounds at a low pH. Briefly, the FRAP reagent was prepared by mixing acetate buffer (300 mM, pH 3.6), a solution of 10 mM TPTZ in 40 mM HCl, and 20 mM FeCl3 at 10:1:1 (v/v/v). Then, 240 μL of FRAP reagent and 10 μL of sample solution were added to a 96-well plate and incubated at 37 °C for 60 min. The absorbance was measured at 593 nm using a microplate reader (Infinite M200PRO, Tecan Austria GmbH, Salzburg, Austria) against a blank. The reducing capacity was determined for 10 and 100 µM compound concentrations. […]. All measurements were performed in three independent experiments. FRAP values, denominating the reduction of ferric-tripyridyltriazine (Fe^3+-TPTZ) to ferrous tripyridyltriazine (Fe^2+-TPTZ) by 4-aminoquinolines were calculated based on a standard curve obtained using […].

recombinant human AChE = target: T1, recombinant human AChE (Homo sapiens, UniProt P22303); assay: biochemical; type: biochemical; conditions: for IS: IS = Ki(BChE)/Ki(AChE), IS > 1 selective to AChE
T1 construct: gift of Dr Florian Nachon (Armed Forces Biomedical Research Institute, Brétigny-sur-Orge, France)
Description: (§1) Acetylthiocholine (ATCh) and 5,5′-dithiobis(2-nitrobenzoic acid) (DTNB) were purchased from Sigma-Aldrich, St. Louis, MO, USA. ATCh was dissolved in water and DTNB in 0.1 M sodium phosphate buffer (pH 7.4). The 4-aminoquinilines were dissolved in DMSO and all further dilutions were made in water.
(§2) The sources of AChE and BChE were purified human BChE and recombinant human AChE that was kindly provided by Dr Florian Nachon (Département de Toxicologie, Armed Forces Biomedical Research Institute, Brétigny-sur-Orge, France). […] The enzymes were diluted in sodium phosphate buffer 0.1 M (pH 7.4) containing 0.1% BSA.
(§3) Enzyme activities were measured spectrophotometrically using a slightly modified Ellman method, as described earlier. […] At least three inhibitor concentrations for each substrate concentration were used in at least three experiments. The apparent inhibition constant (Ki,app) was calculated using the Hunter–Downs Equation and linear regression analysis:(1) Ki,app=vi·i/v0−vi=Ki+Ki/KS·s where the y-intercept determines the enzyme-inhibitor dissociation constant (Ki), while the x-intercept determines the enzyme-substrate dissociation constant, KS.
(§4) The Hunter–Downs Equation was used under the assumption that the substrate, due to relatively low concentrations used in experiments, would bind only to the catalytic site of the enzymes, while the inhibitors would bind to both CAS and/or PAs. This allowed the type of inhibition to be determined from Ki,app vs. substrate concentration ([S]) dependency on Hunter–Downs plot.
(§5) The final content of DMSO in the measurements was up to 0.2%. […] The measurements were performed at 25 °C on a Tecan Infinite M200Pro plate reader (Tecan Austria GmbH, Salzburg, Austria).

purified human BChE = target: T2, purified human BChE (Homo sapiens, UniProt P06276); assay: biochemical; type: biochemical
T2 construct: possibly also a gift of Dr Florian Nachon (the sentence is ambiguous)
Description: as §1, §2, §3, §4, §5

[3] = Acetone/Water/Hydrochloric acid (conc.)
[4] = Dioxane/Water/Hydrochloric acid (conc.)
[5] = Methanol/Water/Hydrochloric acid (conc.)
[6] = log (Ki/µM AChE), read-out: Y Measured 1 log(ki)Ache (converted)
[7] = ± standard error, 25 °C, ATCh substrate, read-out: Ki AChE
[8] = logarithm of Ki in µM, BChE, dependent variable of the QSAR model, read-out: Y Measured 2 log(ki)Bche, log (Ki/µM BChE) (converted)
[9] = ± standard error, 25 °C, ATCh substrate, read-out: Ki BChE

T1 sequence (P22303 32-614): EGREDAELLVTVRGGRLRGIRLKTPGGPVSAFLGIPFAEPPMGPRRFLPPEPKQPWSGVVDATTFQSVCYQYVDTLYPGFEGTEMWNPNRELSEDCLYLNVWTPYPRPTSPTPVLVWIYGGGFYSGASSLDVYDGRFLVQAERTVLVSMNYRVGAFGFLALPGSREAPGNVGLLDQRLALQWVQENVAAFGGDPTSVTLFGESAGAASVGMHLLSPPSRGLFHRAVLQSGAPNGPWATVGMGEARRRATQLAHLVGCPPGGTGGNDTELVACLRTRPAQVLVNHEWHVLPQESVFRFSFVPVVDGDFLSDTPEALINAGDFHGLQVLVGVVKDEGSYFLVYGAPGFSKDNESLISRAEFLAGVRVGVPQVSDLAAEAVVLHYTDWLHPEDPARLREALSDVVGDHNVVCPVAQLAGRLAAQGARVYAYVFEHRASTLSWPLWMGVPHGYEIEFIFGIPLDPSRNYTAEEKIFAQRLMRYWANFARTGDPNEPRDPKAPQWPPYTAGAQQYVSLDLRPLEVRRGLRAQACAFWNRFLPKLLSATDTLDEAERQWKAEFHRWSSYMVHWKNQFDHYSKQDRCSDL
T2 sequence (P06276 29-602): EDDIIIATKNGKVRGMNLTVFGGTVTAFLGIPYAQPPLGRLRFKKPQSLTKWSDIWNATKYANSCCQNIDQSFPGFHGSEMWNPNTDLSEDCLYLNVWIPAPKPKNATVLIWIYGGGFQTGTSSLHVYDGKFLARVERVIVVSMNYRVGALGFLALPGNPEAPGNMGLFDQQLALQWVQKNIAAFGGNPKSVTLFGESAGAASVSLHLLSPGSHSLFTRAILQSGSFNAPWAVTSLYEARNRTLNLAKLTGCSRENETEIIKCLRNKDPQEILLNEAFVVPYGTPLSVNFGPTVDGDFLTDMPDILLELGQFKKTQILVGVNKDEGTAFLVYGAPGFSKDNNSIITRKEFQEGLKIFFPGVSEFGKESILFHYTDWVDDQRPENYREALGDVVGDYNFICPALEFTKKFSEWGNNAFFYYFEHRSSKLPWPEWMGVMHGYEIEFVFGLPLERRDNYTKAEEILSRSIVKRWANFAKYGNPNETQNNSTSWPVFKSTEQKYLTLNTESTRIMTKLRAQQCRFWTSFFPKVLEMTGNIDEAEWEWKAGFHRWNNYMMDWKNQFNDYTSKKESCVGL

SMILES | RM0 [1, 3] | b [1, 3] | RM0 [1, 4] | b [1, 4] | RM0 [1, 5] | b [1, 5] | RF, Methanol/Water/Hydrochloric acid (conc.), mobile phase I [1] | RF, Dioxane/Water/Hydrochloric acid (conc.), mobile phase II [1] | RF, Methanol/Water/Hydrochloric acid (conc.), mobile phase II [1] | RF, Acetone/Water/Hydrochloric acid (conc.), mobile phase III [1] | RF, Dioxane/Water/Hydrochloric acid (conc.), mobile phase III [1] | RF, Methanol/Water/Hydrochloric acid (conc.), mobile phase III [1] | RF, Dioxane/Water/Hydrochloric acid (conc.), mobile phase IV [1] | RF, Acetone/Water/Hydrochloric acid (conc.), mobile phase IV [1] | RF, Methanol/Water/Hydrochloric acid (conc.), mobile phase IV [1] | RF, Acetone/Water/Hydrochloric acid (conc.), mobile phase IX [1] | RF, Methanol/Water/Hydrochloric acid (conc.), mobile phase IX [1] | RF, Dioxane/Water/Hydrochloric acid (conc.), mobile phase V [1] | RF, Acetone/Water/Hydrochloric acid (conc.), mobile phase V [1] | RF, Methanol/Water/Hydrochloric acid (conc.), mobile phase V [1] | also measured
Clc1ccc2c(NCCCN3CCN(CCCNCC45CC6CC(CC(C6)C4)C5)CC3)ccnc2c1 [Compound 22] | 1.4989 | 2.763 | 0.5478 | 1.493 | 1.56 | 2.199 | 0.67 | 0.78 | 0.7 | 0.71 | 0.76 | 0.6 | 0.78 | 0.68 | 0.59 | 0.28 | 0.22 | 0.6 | 0.61 | 0.5 | RF, Dioxane/Water/Hydrochloric acid (conc.), mobile phase VI [1]: 0.48; RF, Acetone/Water/Hydrochloric acid (conc.), mobile phase VI [1]: 0.51; RF, Methanol/Water/Hydrochloric acid (conc.), mobile phase VI [1]: 0.45; RF, Acetone/Water/Hydrochloric acid (conc.), mobile phase VII [1]: 0.43; RF, Methanol/Water/Hydrochloric acid (conc.), mobile phase VII [1]: 0.38; RF, Acetone/Water/Hydrochloric acid (conc.), mobile phase VIII [1]: 0.36; RF, Methanol/Water/Hydrochloric acid (conc.), mobile phase VIII [1]: 0.31; FRAP ([2]; 10 µM compound): 11 ± 3 µM; FRAP ([2]; 100 µM compound): 34 ± 8 µM; IS (recombinant human AChE): 4.8; Ki (recombinant human AChE; [6]): 0.69 µM; Ki (recombinant human AChE; [7]): 0.69 ± 0.02 µM; Ki (purified human BChE; [8]): 3.3 µM; Ki (purified human BChE; [9]): 3.3 ± 0.2 µM
CC(CCNCCC12CC3CC(CC(C3)C1)C2)Nc1ccnc2ccccc12 (stereo not shown) [Compound 16] | 1.94 | 3.086 | 0.9042 | 1.814 | 2.5841 | 3.345 | 0.7 | 0.74 | 0.64 | 0.59 | 0.7 | 0.51 | 0.7 | 0.54 | 0.5 | 0.12 | 0.09 | 0.5 | 0.44 | 0.42 | RF, Dioxane/Water/Hydrochloric acid (conc.), mobile phase VI [1]: 0.35; RF, Acetone/Water/Hydrochloric acid (conc.), mobile phase VI [1]: 0.39; RF, Methanol/Water/Hydrochloric acid (conc.), mobile phase VI [1]: 0.31; RF, Acetone/Water/Hydrochloric acid (conc.), mobile phase VII [1]: 0.33; RF, Methanol/Water/Hydrochloric acid (conc.), mobile phase VII [1]: 0.21; RF, Acetone/Water/Hydrochloric acid (conc.), mobile phase VIII [1]: 0.26; RF, Methanol/Water/Hydrochloric acid (conc.), mobile phase VIII [1]: 0.15; FRAP ([2]; 10 µM compound): 4.1 ± 0.4 µM; FRAP ([2]; 100 µM compound): 46 ± 4 µM; IS (recombinant human AChE): 0.7; Ki (recombinant human AChE; [6]): 0.52 µM; Ki (recombinant human AChE; [7]): 0.52 ± 0.02 µM; Ki (purified human BChE; [8]): 0.38 µM; Ki (purified human BChE; [9]): 0.38 ± 0.03 µM
Clc1ccc2c(NCCNCC34CC5CC(CC(C5)C3)C4)ccnc2c1 [Compound 1] | 1.738 | 2.883 | 0.8129 | 1.796 | 2.081 | 2.812 | 0.72 | 0.78 | 0.68 | 0.62 | 0.73 | 0.54 | 0.73 | 0.59 | 0.55 | 0.16 | 0.15 | 0.55 | 0.51 | 0.48 | RF, Dioxane/Water/Hydrochloric acid (conc.), mobile phase VI [1]: 0.4; RF, Acetone/Water/Hydrochloric acid (conc.), mobile phase VI [1]: 0.41; RF, Methanol/Water/Hydrochloric acid (conc.), mobile phase VI [1]: 0.43; RF, Acetone/Water/Hydrochloric acid (conc.), mobile phase VII [1]: 0.36; RF, Methanol/Water/Hydrochloric acid (conc.), mobile phase VII [1]: 0.28; RF, Acetone/Water/Hydrochloric acid (conc.), mobile phase VIII [1]: 0.32; RF, Methanol/Water/Hydrochloric acid (conc.), mobile phase VIII [1]: 0.22; FRAP ([2]; 10 µM compound): 2.4 ± 1.3 µM; FRAP ([2]; 100 µM compound): 20 ± 4 µM; IS (recombinant human AChE): 1.8; Ki (recombinant human AChE; [6]): 1.2 µM; Ki (recombinant human AChE; [7]): 1.2 ± 0.1 µM; less potent inhibitors of BChE than compounds 3 or 4 (purified human BChE): about 3.2 times; Ki (purified human BChE; [8]): 2.1 µM; Ki (purified human BChE; [9]): 2.1 ± 0.2 µM
